Data reported in PubChem BioAssay (NCI).
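Five compound concentrations were applied to cells in 96-well plates for 48 hours; endpoints were derived by simple linear interpolation of the resulting dose-response curve. GI50 is the concentration that inhibits growth by half. The concentration for full growth arrest is given as TGI.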

Columns and labels:
Assay in all cases: DTP human tumour cell line panel, 48 h
[1] = test system: UACC-257 melanoma
[2] = test system: HCT-15 colon
[3] = test system: HCT-116 colon
[4] = test system: PC-3 prostate
[5] = test system: UACC-62 melanoma
[6] = test system: MALME-3M melanoma
[7] = test system: A549 NSCLC
[8] = test system: COLO 205 colon
[9] = test system: HT29 colon
[10] = test system: SK-MEL-5 melanoma

Compound	TGI [1]	TGI [2]	TGI [3]	TGI [4]	TGI [5]	TGI [6]	TGI [7]	TGI [8]	TGI [9]	TGI [10]	GI50 [1]	GI50 [2]	GI50 [4]	GI50 [5]	GI50 [6]	GI50 [7]	GI50 [9]	GI50 [10]	GI50 [3]	GI50 [8]
COc1ccc2c(c1O)C13CCN(C)C(C2)C1CCC1(C3)OCCO1 (stereo not given)	> 100 µM	> 100 µM	> 100 µM	> 100 µM	> 100 µM	> 100 µM	> 100 µM	> 100 µM	> 100 µM	> 100 µM	–	–	–	–	–	–	–	–	–	–
O=C(Nc1ccc(F)cc1)Nc1ccccc1CNc1nc(Nc2ccc(OCCN3CCCC3)cc2)ncc1Cl	2.35 µM	6.06 µM	–	6.19 µM	2.04 µM	1.55 µM	20.9 µM	–	50 µM	4.98 µM	1.07 µM	1.58 µM	1.67 µM	0.968 µM	0.81 µM	2.72 µM	1.49 µM	1.55 µM	–	–
COc1ccc2c(c1)C(=O)N1CCOC1C2C(=O)O (stereo not given)	> 100 µM	> 100 µM	> 100 µM	–	> 100 µM	–	> 100 µM	–	> 100 µM	> 100 µM	–	–	–	–	–	–	–	–	–	–
CCOC(=O)c1sc2ncn(Cc3cccc(Br)c3)c(=O)c2c1C	84.4 µM	> 100 µM	93.8 µM	> 100 µM	92.3 µM	–	> 100 µM	> 100 µM	> 100 µM	96 µM	21.1 µM	62.4 µM	25.5 µM	19.5 µM	–	56.2 µM	87.8 µM	25.7 µM	30.7 µM	61.5 µM
CC(=O)Oc1cc(C)c2c(c1OC(C)=O)CC1(O2)[C@@H](C)CCC2[C@@]3(C)CC[C@H](OC(C)=O)C(C)(C)C3CC[C@]21C (stereo not given in full)	21.8 µM	13 µM	13.3 µM	–	5.26 µM	–	33.2 µM	3.15 µM	19.6 µM	10.7 µM	–	–	–	–	–	–	–	–	–	–
N#CC(/C(=N/NC(=O)C(=O)NN)C(=O)Nc1nc([N+](=O)[O-])cs1)c1ccc(Cl)cc1 (stereo not given)	> 100 µM	–	> 100 µM	–	> 100 µM	> 100 µM	> 100 µM	> 100 µM	> 100 µM	> 100 µM	–	–	–	–	–	–	–	–	–	–
CC[O-].CC[O-].O=C([CH-]C(=O)c1cccnc1)c1ccccc1.O=C([CH-]C(=O)c1cccnc1)c1ccccc1.[Ti+4]	> 100 µM	> 100 µM	> 100 µM	–	> 100 µM	> 100 µM	> 100 µM	–	> 100 µM	> 100 µM	52.2 µM	18.3 µM	–	> 100 µM	> 100 µM	> 100 µM	57.1 µM	> 100 µM	> 100 µM	–
COc1cc2c3c(n(CCCN(CCN)CCCn4c5c(c6cc(OC)c(OC)cc6c4=O)C(=O)c4cc6c(cc4-5)OCO6)c(=O)c2cc1OC)-c1cc2c(cc1C3=O)OCO2	> 89.1 µM	> 100 µM	3.25 µM	> 45.2 µM	0.858 µM	–	> 100 µM	> 57 µM	> 37 µM	3.34 µM	11.6 µM	8.43 µM	2.57 µM	0.24 µM	–	2.72 µM	2.52 µM	1.04 µM	0.837 µM	0.645 µM
CN(C)CCN(C)CC1COC(C)(C)O1 (stereo not given)	> 100 µM	–	> 100 µM	–	> 100 µM	> 100 µM	> 100 µM	> 100 µM	> 100 µM	> 100 µM	–	–	–	–	–	–	–	–	–	–
O=c1cc(-c2ccccc2)oc2cc(O)c(O)c(O)c12	> 100 µM	58.8 µM	31.8 µM	> 100 µM	31.9 µM	–	> 100 µM	–	> 100 µM	45.3 µM	39 µM	8.25 µM	17.4 µM	9.39 µM	–	36.2 µM	42.7 µM	9.47 µM	11.1 µM	–
Cc1noc2cccc(OCc3ccccc3)c12	> 100 µM	> 100 µM	> 100 µM	–	> 100 µM	> 100 µM	> 100 µM	> 100 µM	> 100 µM	41.5 µM	–	–	–	–	–	–	–	–	–	–
CCN(CC)CCCn1cnc2ncccc2c1=O	–	–	> 100 µM	–	> 100 µM	> 100 µM	> 100 µM	> 100 µM	> 100 µM	> 100 µM	–	–	–	–	–	–	–	–	–	–
CN(CCCCCl)P(=O)(OCc1ccc([N+](=O)[O-])o1)OCC1OC(n2ccc(N)nc2=O)C(F)(F)C1O (stereo not given)	> 100 µM	> 100 µM	> 100 µM	99.3 µM	> 100 µM	–	> 59.5 µM	> 41.6 µM	> 100 µM	> 67.1 µM	17.2 µM	> 73.5 µM	1.82 µM	1.1 µM	–	0.73 µM	29.7 µM	3.2 µM	1.16 µM	7.47 µM
Cc1cc(NCCCNc2ccnc3cc(Cl)ccc23)nc(N2CCN(C)CC2)n1	3.88 µM	22.8 µM	13 µM	–	4.55 µM	4.47 µM	16.5 µM	6.29 µM	13.5 µM	3.24 µM	1.8 µM	3.29 µM	–	2.05 µM	2.12 µM	3.66 µM	1.33 µM	1.67 µM	2.22 µM	2.28 µM
Cc1oc2c(C)c3oc(=O)cc(C)c3cc2c1CNC(=O)[C@@H]1OCCOCCOCCOCCOCCOC1C(=O)O (stereo not given in full)	> 100 µM	> 100 µM	> 100 µM	–	> 100 µM	> 100 µM	> 100 µM	> 100 µM	> 100 µM	> 100 µM	–	–	–	–	–	–	–	–	–	–
O=C(O)C1=CCCc2ccc3ccccc3c21	> 100 µM	> 100 µM	> 100 µM	–	> 100 µM	> 100 µM	> 100 µM	> 100 µM	> 100 µM	–	–	–	–	–	–	–	–	–	–	–
Cc1ccccc1C1=[N+]([O-])c2ccccc2C1=O	27.9 µM	34.8 µM	32.4 µM	–	34.6 µM	33.2 µM	–	29.1 µM	27.7 µM	30.9 µM	–	–	–	–	–	–	–	–	–	–
N#CC(C(=O)/C(=N/NC(=O)c1ccccc1O)C(C#N)c1ccccc1)c1ccccc1 (stereo not given)	> 100 µM	> 100 µM	> 100 µM	–	> 100 µM	> 100 µM	> 100 µM	> 100 µM	> 100 µM	–	–	–	–	–	–	–	–	–	–	–
